Assay results taken from PubChem BioAssay (NCI).
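Growth conditions: 96-well plates. Treatment: test compound, 48 hours, 5 concentrations. Analysis: linear interpolation between bracketing concentrations; unreached endpoints set to highest concentration. TGI marks complete inhibition of growth.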

Columns and labels:
Experiment in all cases: DTP human tumour cell line panel, 48 h
A549 NSCLC = test system: A549 NSCLC
NCI-H226 lung = test system: NCI-H226 lung
UACC-62 melanoma = test system: UACC-62 melanoma
SF-268 CNS = test system: SF-268 CNS
NCI-H460 lung = test system: NCI-H460 lung
SNB-75 CNS = test system: SNB-75 CNS
HT29 colon = test system: HT29 colon
BT-549 breast = test system: BT-549 breast
OVCAR-5 ovarian = test system: OVCAR-5 ovarian
MOLT-4 leukemia = test system: MOLT-4 leukemia
SN12C renal = test system: SN12C renal
U251 CNS = test system: U251 CNS
UACC-257 melanoma = test system: UACC-257 melanoma
SF-539 CNS = test system: SF-539 CNS
HCC-2998 colon = test system: HCC-2998 colon
MCF7 breast = test system: MCF7 breast
HCT-15 colon = test system: HCT-15 colon
SNB-19 CNS = test system: SNB-19 CNS
SW-620 colon = test system: SW-620 colon
SK-MEL-2 melanoma = test system: SK-MEL-2 melanoma
HCT-116 colon = test system: HCT-116 colon
SR leukemia = test system: SR leukemia
COLO 205 colon = test system: COLO 205 colon
RPMI-8226 leukemia = test system: RPMI-8226 leukemia
HL-60(TB) leukemia = test system: HL-60(TB) leukemia
SF-295 CNS = test system: SF-295 CNS
EKVX NSCLC = test system: EKVX NSCLC
CCRF-CEM leukemia = test system: CCRF-CEM leukemia
MDA-MB-435 = test system: MDA-MB-435
SK-MEL-5 melanoma = test system: SK-MEL-5 melanoma
IGROV1 ovarian = test system: IGROV1 ovarian
OVCAR-8 ovarian = test system: OVCAR-8 ovarian
K-562 leukemia = test system: K-562 leukemia
NCI-H522 lung = test system: NCI-H522 lung
OVCAR-3 ovarian = test system: OVCAR-3 ovarian
A498 renal = test system: A498 renal
MALME-3M melanoma = test system: MALME-3M melanoma
MDA-MB-231 breast = test system: MDA-MB-231 breast
ACHN renal = test system: ACHN renal
CAKI-1 renal = test system: CAKI-1 renal
HOP-92 NSCLC = test system: HOP-92 NSCLC
NCI/ADR-RES ovarian = test system: NCI/ADR-RES ovarian
T-47D breast = test system: T-47D breast
MDA-N = test system: MDA-N
M14 melanoma = test system: M14 melanoma
HS 578T breast = test system: HS 578T breast
SK-MEL-28 melanoma = test system: SK-MEL-28 melanoma
DU-145 prostate = test system: DU-145 prostate
RXF 393 renal = test system: RXF 393 renal
PC-3 prostate = test system: PC-3 prostate
LOX IMVI melanoma = test system: LOX IMVI melanoma
NCI-H23 lung = test system: NCI-H23 lung
786-0 renal = test system: 786-0 renal
OVCAR-4 ovarian = test system: OVCAR-4 ovarian
HOP-62 NSCLC = test system: HOP-62 NSCLC
TK-10 renal = test system: TK-10 renal
UO-31 renal = test system: UO-31 renal
SK-OV-3 ovarian = test system: SK-OV-3 ovarian
KM12 colon = test system: KM12 colon

Measured: TGI

O=c1oc2ccccc2cc1P(=O)(O)O
not listed: UO-31 renal | SK-OV-3 ovarian | KM12 colon
> 100 µM: all other assays above

CC(C)(C)CNCCO
> 45.7 µM: MOLT-4 leukemia
> 100 µM: all other assays above

CSC(=Nc1ccccc1)c1c(C)[nH]n(-c2ccccc2)c1=O
not listed: SF-295 CNS | IGROV1 ovarian | ACHN renal | HOP-92 NSCLC | HOP-62 NSCLC
> 100 µM: all other assays above

Fc1ccc(/C=C2\COCC3=C2NC(=S)NC3c2ccc(F)cc2)cc1 (centres undefined)
76.3 µM: IGROV1 ovarian
> 100 µM: ACHN renal
57.6 µM: SNB-75 CNS
52.7 µM: HS 578T breast
63.2 µM: KM12 colon
44.6 µM: K-562 leukemia
32.1 µM: HCT-15 colon | HCT-116 colon
39.5 µM: MCF7 breast
35.1 µM: COLO 205 colon
33.3 µM: SN12C renal | SF-295 CNS | MDA-MB-435
40.8 µM: U251 CNS
45 µM: SR leukemia
50.7 µM: NCI-H23 lung
36 µM: NCI-H460 lung | SW-620 colon
30 µM: OVCAR-8 ovarian
28.6 µM: SK-MEL-2 melanoma
38.5 µM: OVCAR-4 ovarian
30.6 µM: A498 renal
30.4 µM: RXF 393 renal
33.5 µM: UO-31 renal | SK-MEL-5 melanoma
34.2 µM: UACC-257 melanoma | NCI-H522 lung | MDA-N
44.4 µM: RPMI-8226 leukemia
33.9 µM: SF-268 CNS | MDA-MB-231 breast
76.2 µM: CAKI-1 renal
35.4 µM: HL-60(TB) leukemia
31.7 µM: HOP-62 NSCLC
32.7 µM: HCC-2998 colon
45.7 µM: CCRF-CEM leukemia
45.5 µM: TK-10 renal
47.7 µM: SNB-19 CNS
45.1 µM: NCI-H226 lung
32.4 µM: UACC-62 melanoma
77.3 µM: DU-145 prostate
42.6 µM: EKVX NSCLC
30.1 µM: M14 melanoma
38.2 µM: LOX IMVI melanoma
36.9 µM: SF-539 CNS
32.6 µM: OVCAR-3 ovarian
90.1 µM: T-47D breast
47 µM: OVCAR-5 ovarian
33 µM: PC-3 prostate
40 µM: NCI/ADR-RES ovarian
79.8 µM: SK-OV-3 ovarian
34 µM: HOP-92 NSCLC
54 µM: MOLT-4 leukemia
53.5 µM: BT-549 breast
34.4 µM: 786-0 renal
